Consider 16 compounds from patent US20020049223A1, “Quinoline and naphthyridine carboxylic acid antibacterials” (priority 1999, published 2002).

A value given as a limit tells only on which side of the number the result lay.

Holding throughout (experiment): Assay B: in vitro antibacterial activity, broth microdilution MIC (NCCLS)
Format in all cases: cell-based
(In general: In broth dilution the organism is exposed to a series of concentrations in liquid medium.)

The subject of assay [1] is Streptococcus pneumoniae ATCC 6303. As to conditions: Table 2, Assay B, Mueller Hinton broth with 3% lysed horse blood, 20 to 24 hr; code F = Streptococcus pneumoniae ATCC 6303; unit assumed. A digest of the protocol: (§1)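 NCCLS broth microdilution with two-fold dilutions in cation-adjusted Mueller Hinton broth, inoculum about 5×10^5 CFU/mL, 35 °C in ambient air for 16-20 h; MIC read visually as lowest concentration completely inhibiting growth. S. pneumoniae: 3% lysed horse blood, 20-24 h; H. influenzae: 5 g/L yeast extract, 0.3 mmol/L hematin, 15 mg/L NAD, 20-24 h.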

For assay [2], the system named is Staphylococcus aureus ATCC 6538P. As to conditions: Table 2, Assay B, cation-adjusted Mueller Hinton broth, 35° C., 16 to 20 hr; code A = Staphylococcus aureus ATCC 6538P; unit assumed. A digest of the protocol: as §1
In assay [3] the test system is Haemophilus influenzae DILL AMP R. As to conditions: Table 2, Assay B, Mueller Hinton broth with yeast extract, hematin and NAD, 20 to 24 hr; code E = Haemophilus influenzae DILL AMP R; unit assumed. A digest of the protocol: as §1
Assay [4] has as its system Enterococcus faecalis PIU 1967. As to conditions: Table 2, Assay B, cation-adjusted Mueller Hinton broth, 35° C., 16 to 20 hr; code B = Enterococcus faecalis PIU 1967; unit assumed. The method in brief: as §1
For assay [5], the system named is Escherichia coli JUHL. As to conditions: Table 2, Assay B, cation-adjusted Mueller Hinton broth, 35° C., 16 to 20 hr; code D = Escherichia coli JUHL; unit assumed. A digest of the protocol: as §1

With `O=C(O)c1cn(C2CC2)c2c(F)c(-c3cc4c(s3)CCCC4O)c(F)cc2c1=O` (centres unmarked) [Example 294, 1-cyclopropyl-6,8-difluoro-7-(4-hydroxy-4,5,6,7-tetrahydro-1-benzothien-2-yl)-4-oxo-1,4-dihydroguinoline-3-carboxylic acid], the Antibacterial Activity (MIC's), F in assay [1] amounted to 0.03 µg/mL. The compound also displayed an Antibacterial Activity (MIC's), A in assay [2] of no more than 0.004 µg/mL. Moreover, the Antibacterial Activity (MIC's), E in assay [3] is no more than 0.004 µg/mL. For the same compound, in assay [4], the Antibacterial Activity (MIC's), B worked out at 0.015 µg/mL. Also, the Antibacterial Activity (MIC's), D in assay [5] came out at 0.03 µg/mL.
Turning to `O=C(O)c1cn(C2CC2)c2c(F)c(-c3cc4c(s3)C(O)CCC4)c(F)cc2c1=O` (centres unmarked) [Example 295, 1-cyclopropyl-6,8-difluoro-7-(7-hydroxy-4,5,6,7-tetrahydro-1-benzothien-2-yl)-4-oxo-1,4-dihydroquinoline-3-carboxylic acid], in assay [1], the Antibacterial Activity (MIC's), F was 0.03 µg/mL. This compound also came in with an Antibacterial Activity (MIC's), A in assay [2] of no more than 0.004 µg/mL. This compound had an Antibacterial Activity (MIC's), E in assay [3] of no more than 0.004 µg/mL. The Antibacterial Activity (MIC's), B in assay [4] amounted to 0.008 µg/mL. The compound further yielded an Antibacterial Activity (MIC's), D in assay [5] of 0.03 µg/mL.
For the compound `O=C(O)c1cn(C2CC2)c2cc(-c3cc4c(s3)CCCC4O)c(F)cc2c1=O` (centres unmarked) [Example 296, 1-cyclopropyl-6-fluoro-7-(4-hydroxy-4,5,6,7-tetrahydro-1-benzothien-2-yl)-4-oxo-1,4-dihydroquinoline-3-carboxylic acid], the Antibacterial Activity (MIC's), F in assay [1] is 0.5 µg/mL. In assay [2], this compound gave an Antibacterial Activity (MIC's), A of no more than 0.004 µg/mL. The compound further showed an Antibacterial Activity (MIC's), E in assay [3] of 0.06 µg/mL. This compound gave an Antibacterial Activity (MIC's), B in assay [4] of 0.25 µg/mL. The same compound registered an Antibacterial Activity (MIC's), D in assay [5] of 0.5 µg/mL.
`COc1c(-c2cc3c(s2)C(O)CCC3)c(F)cc2c(=O)c(C(=O)O)cn(C3CC3)c12` (centres unmarked) [Example 299, 1-cyclopropyl-6-fluoro-7-(7-hydroxy-4,5,6,7-tetrahydro-1-benzothien-2-yl)-8-methoxy-4-oxo-1,4-dihydroquinoline-3-carboxylic acid] gave an Antibacterial Activity (MIC's), F in assay [1] of 0.06 µg/mL. Besides, the Antibacterial Activity (MIC's), A in assay [2] is no more than 0.004 µg/mL. This compound returned an Antibacterial Activity (MIC's), E in assay [3] of 0.03 µg/mL. For the same compound, the Antibacterial Activity (MIC's), B in assay [4] amounted to 0.06 µg/mL. Further, in assay [5], the Antibacterial Activity (MIC's), D was 0.125 µg/mL.
In turn, `Cl.NC1CCCc2sc(-c3cc4c(cc3F)c(=O)c(C(=O)O)cn4C3CC3)cc21` (centres unmarked) [Example 307, 7-(4-amino-4,5,6,7-tetrahydro-1-benzothien-2-yl)-1-cyclopropyl-6-fluoro-4-oxo-1,4-dihydroquinoline-3-carboxylic acid hydrochloride] registered an Antibacterial Activity (MIC's), F in assay [1] of 0.008 µg/mL. The Antibacterial Activity (MIC's), A in assay [2] was 0.008 µg/mL. This compound had an Antibacterial Activity (MIC's), E in assay [3] of 0.015 µg/mL. The same compound displayed an Antibacterial Activity (MIC's), B in assay [4] of 0.03 µg/mL. Besides, the Antibacterial Activity (MIC's), D in assay [5] amounted to 0.03 µg/mL.
As for `Cl.NC1CCCc2sc(-c3c(F)cc4c(=O)c(C(=O)O)cn(C5CC5)c4c3F)cc21` (centres unmarked) [Example 308, 7-(4-amino-4,5,6,7-tetrahydro-1-benzothien-2-yl)-1-cyclopropyl-6,8-difluoro-4-oxo-1,4-dihydroquinoline-3-carboxylic acid hydrochloride], the Antibacterial Activity (MIC's), F in assay [1] was 0.015 µg/mL. In assay [2], this compound returned an Antibacterial Activity (MIC's), A of 0.008 µg/mL. In addition, the Antibacterial Activity (MIC's), E in assay [3] worked out at 0.015 µg/mL. The compound further showed an Antibacterial Activity (MIC's), B in assay [4] of 0.03 µg/mL. Further, the Antibacterial Activity (MIC's), D in assay [5] amounted to 0.03 µg/mL.
As to `Cl.NC1CCCc2cc(-c3c(F)cc4c(=O)c(C(=O)O)cn(C5CC5)c4c3F)sc21` (centres unmarked) [Example 309, 7-(7-amino-4,5,6,7-tetrahydro-1-benzothien-2-yl)-1-cyclopropyl-6,8-difluoro-4-oxo-1,4-dihydroquinoline-3-carboxylic acid hydrochloride], the Antibacterial Activity (MIC's), F in assay [1] was determined as 0.06 µg/mL. The Antibacterial Activity (MIC's), A in assay [2] stood at 0.015 µg/mL. Also, the Antibacterial Activity (MIC's), E in assay [3] stood at 0.015 µg/mL. Besides, the Antibacterial Activity (MIC's), B in assay [4] worked out at 0.06 µg/mL. The Antibacterial Activity (MIC's), D in assay [5] was found to be 0.03 µg/mL.
`Cl.NC1CCCc2cc(-c3cc4c(cc3F)c(=O)c(C(=O)O)cn4C3CC3)sc21` (centres unmarked) [Example 310, 7-(7-amino-4,5,6,7-tetrahydro-1-benzothien-2-yl)-1-cyclopropyl-6-fluoro-4-oxo-1,4-dihydroquinoline-3-carboxylic acid hydrochloride]: in assay [1], the Antibacterial Activity (MIC's), F was 0.008 µg/mL. The Antibacterial Activity (MIC's), A in assay [2] was 0.008 µg/mL. In assay [3], this compound came in with an Antibacterial Activity (MIC's), E of 0.015 µg/mL. The compound further registered an Antibacterial Activity (MIC's), B in assay [4] of 0.015 µg/mL. The Antibacterial Activity (MIC's), D in assay [5] was determined as 0.015 µg/mL.
In the case of `O=C(O)c1cn(C2CC2)c2c(Cl)c(-c3cc4c(s3)C(O)CCC4)ccc2c1=O` (centres unmarked) [Example 315, 8-chloro-1-cyclopropyl-7-(7-hydroxy-4,5,6,7-tetrahydro-1-benzothien-2-yl)-4-oxo-1,4-dihydroquinoline-3-carboxylic acid], the Antibacterial Activity (MIC's), F in assay [1] was found to be 0.125 µg/mL. In assay [2], this compound showed an Antibacterial Activity (MIC's), A of 0.008 µg/mL. In addition, the Antibacterial Activity (MIC's), E in assay [3] came to 0.008 µg/mL. In assay [4], this compound showed an Antibacterial Activity (MIC's), B of 0.06 µg/mL. In assay [5], this compound had an Antibacterial Activity (MIC's), D of 0.125 µg/mL.
As to `Cc1c(-c2cc3c(s2)CCCC3O)c(F)cc2c(=O)c(C(=O)O)cn(C3CC3)c12` (centres unmarked) [Example 316, 1-cyclopropyl-6-fluoro-7-(4-hydroxy-4,5,6,7-tetrahydro-1-benzothien-2-yl)-8-methyl-4-oxo-1,4-dihydroquinoline-3-carboxylic acid], the Antibacterial Activity (MIC's), F in assay [1] came to 0.03 µg/mL. This compound also gave an Antibacterial Activity (MIC's), A in assay [2] of no more than 0.004 µg/mL. Moreover, the Antibacterial Activity (MIC's), E in assay [3] was no more than 0.004 µg/mL. In assay [4], the Antibacterial Activity (MIC's), B came out at 0.06 µg/mL. The Antibacterial Activity (MIC's), D in assay [5] was 0.06 µg/mL.
Take `CNC1CCCc2sc(-c3c(F)cc4c(=O)c(C(=O)O)cn(C5CC5)c4c3C)cc21.Cl` (centres unmarked) [Example 317, 1-cyclopropyl-6-fluoro-8-methyl-7-(4-(methylamino)-4,5,6,7-tetrahydro-1-benzothien-2-yl)-4-oxo-1,4-dihydroquinoline-3-carboxylic acid hydrochloride]: in assay [1], the Antibacterial Activity (MIC's), F is 0.03 µg/mL. Moreover, the Antibacterial Activity (MIC's), A in assay [2] was found to be 0.03 µg/mL. Further, the Antibacterial Activity (MIC's), E in assay [3] was determined as 0.03 µg/mL. Further, the Antibacterial Activity (MIC's), B in assay [4] is 0.06 µg/mL. In assay [5], this compound came in with an Antibacterial Activity (MIC's), D of 0.06 µg/mL.
In the case of `Nc1c(F)c(-c2cc3c(s2)C(O)CCC3)c(F)c2c1c(=O)c(C(=O)O)cn2C1CC1` (centres unmarked) [Example 319, 5-amino-1-cyclopropyl-6,8-difluoro-7-(7-hydroxy-4,5,6,7-tetrahydro-1-benzothien-2-yl)-4-oxo-1,4-dihydroquinoline-3-carboxylic acid], the Antibacterial Activity (MIC's), F in assay [1] worked out at 0.03 µg/mL. Further, the Antibacterial Activity (MIC's), A in assay [2] was no more than 0.004 µg/mL. The compound also came in with an Antibacterial Activity (MIC's), E in assay [3] of 0.015 µg/mL. This compound registered an Antibacterial Activity (MIC's), B in assay [4] of 0.06 µg/mL. For the same compound, the Antibacterial Activity (MIC's), D in assay [5] turned out to be 0.06 µg/mL.
As for `Cc1c(-c2cc3c(s2)CCCC3N)c(F)cc2c(=O)c(C(=O)O)cn(C3CC3)c12.Cl` (centres unmarked) [Example 321, 7-(4-amino-4,5,6,7-tetrahydro-1-benzothien-2-yl)-1-cyclopropyl-6-fluoro-8-methyl-4-oxo-1,4-dihydroquinoline-3-carboxylic acid hydrochloride], the Antibacterial Activity (MIC's), F in assay [1] was no more than 0.004 µg/mL. Also, the Antibacterial Activity (MIC's), A in assay [2] is no more than 0.004 µg/mL. In assay [3], this compound displayed an Antibacterial Activity (MIC's), E of no more than 0.004 µg/mL. In addition, in assay [4], the Antibacterial Activity (MIC's), B amounted to 0.015 µg/mL. In addition, the Antibacterial Activity (MIC's), D in assay [5] worked out at 0.015 µg/mL.
Consider `Cl.NC1CCCc2cc(-c3cc(F)c4c(=O)c(C(=O)O)cn(C5CC5)c4c3F)sc21` (centres unmarked) [Example 326, 7-(7-amino-4,5,6,7-tetrahydro-1-benzothien-2-yl)-1-cyclopropyl-5,8-difluoro-4-oxo-1,4-dihydroquinoline-3-carboxylic acid hydrochloride], for which the Antibacterial Activity (MIC's), F in assay [1] is 0.125 µg/mL. This compound also registered an Antibacterial Activity (MIC's), A in assay [2] of 0.125 µg/mL. The Antibacterial Activity (MIC's), E in assay [3] was 0.015 µg/mL. In assay [4], this compound gave an Antibacterial Activity (MIC's), B of 0.25 µg/mL. In addition, in assay [5], the Antibacterial Activity (MIC's), D was found to be 0.125 µg/mL.
`Cl.NC1CCCc2sc(-c3ccc4c(=O)c(C(=O)O)cn(C5CC5)c4c3Cl)cc21` (centres unmarked) [Example 329, 7-(4-amino-4,5,6,7-tetrahydro-1-benzothien-2-yl)-8-chloro-1-cyclopropyl-4-oxo-1,4-dihydroquinoline-3-carboxylic acid hydrochloride] came in with an Antibacterial Activity (MIC's), F in assay [1] of 0.008 µg/mL. Further, the Antibacterial Activity (MIC's), A in assay [2] was no more than 0.004 µg/mL. The Antibacterial Activity (MIC's), E in assay [3] was 0.008 µg/mL. Besides, in assay [4], the Antibacterial Activity (MIC's), B turned out to be 0.03 µg/mL. Moreover, the Antibacterial Activity (MIC's), D in assay [5] was 0.03 µg/mL.
In assay [1], `Cl.NC1CCCc2cc(-c3ccc4c(=O)c(C(=O)O)cn(C5CC5)c4c3Cl)sc21` (centres unmarked) [Example 330, 7-(7-amino-4,5,6,7-tetrahydro-1-benzothien-2-yl)-8-chloro-1-cyclopropyl-4-oxo-1,4-dihydroquinoline-3-carboxylic acid hydrochloride] came in with an Antibacterial Activity (MIC's), F of 0.03 µg/mL. The compound also returned an Antibacterial Activity (MIC's), A in assay [2] of 0.015 µg/mL. The same compound gave an Antibacterial Activity (MIC's), E in assay [3] of 0.008 µg/mL. For the same compound, the Antibacterial Activity (MIC's), B in assay [4] turned out to be 0.06 µg/mL. The compound also showed an Antibacterial Activity (MIC's), D in assay [5] of 0.03 µg/mL.
